Data as given in patent publication US10640457B2, “Histone acetyltransferase activators and uses thereof” (The Trustees of Columbia University in the City of New York, priority 2009, dated 2020).
Where “and” joins values, the source holds several entries; their conditions need not be identical. Equal entries are not always repeated. Entries after “also recorded” stand apart in the source; their conditions may differ.

Tests used:
[1] = tested on: hippocampal slices from APP/PS1 mice; assay: CA1 LTP in hippocampal slices of APP/PS1 and WT mice (TSA)
Procedure: At this age the Tg mice just start showing the synaptic plasticity and memory impairments [A29] (herein incorporated by reference in its entirety). Basal synaptic transmission (BST) was similar between APP/PS1 and WT mice. We found no difference in BST among the 2 groups as previously shown in mice of this age [A29] (herein incorporated by reference in its entirety). Hippocampal slices were then perfused with TSA (1.65 μM) for 30 min before inducing LTP through tetanic stimulation of the Schaeffer collateral pathway. Potentiation in TSA treated APP/P S1 slices was far greater than in vehicle-treated APP/PS1 slices (FIG. 17). […] The observation that inspired these studies was the result of a series of experiments in which we tested whether a brief application of the HDAC inhibitor TSA was capable of rescuing the defect in LTP shown by slices from 3-4 month-old APP/PS1 mice (for a detailed description of the experiments showing the characterization of these mice [B50]; herein incorporated by reference in its entirety). At this age the transgenic mice just start showing the synaptic plasticity and memory impairments [B14, B50] (each herein incorporated by reference in its entirety)). […] (each herein incorporated by reference in its entirety), basal synaptic transmission (BST) was similar between APP/PS1 and WT mice. Hippocampal slices were then perfused with TSA (1.65 nM) for 30 min before inducing LTP through tetanic stimulation of the Schaeffer collateral pathway. Potentiation in TSA treated APP/PS1 slices was far greater than in vehicle-treated APP/PS1 slices (two-way ANOVA: F1,11=13.166, p=0.004; FIG. 17). […] Thus, HDAC inhibition is capable of rescuing the defect in LTP in the APP/PS1 animal model of Aβ deposition.

[2] = Kinetics of YF2 in tail blood; assay type: in vivo, mice; conditions: 20 mg/kg i.p.
Procedure: To this purpose, we administered the compound (20 mg/kg. i.p.) and then sampled blood from tails at different time points.

[3] = tested on: histone acetylation (ACH3) in hippocampus, cortex, liver; assay: Western blot of histone acetylation in mouse tissues after compound administration; assay type: in vivo, mice
Excerpt: The mice liver and hippocampus were extracted 1 hr after treatment. […] In addition to the mouse liver and hippocampus, the mouse cortex was also extracted.
The BBB was by-passed by giving it through cannulas implanted onto the dorsal hippocampus. Both the hippocampus and cortex were extracted at 2 hrs or 4 hrs after treatment.
Two and four hrs after its administration, the mice were sacrificed and hippocampi were extracted. […] Purity was verified through Nuclear Magnetic Resonance (NMR). […] Hippocampus extraction was made at 3 different time points (0.5, 1 and 2 hrs post treatment). We then ran a western blotting for ACH3.
The compound was i.p. administered at 20 mg/Kg, mice were sacrificed 30 min later, and hippocampi were removed and quickly frozen for WB analysis. […] (each herein incorporated by reference in its entirety). […]

Aβ42-treated slices = assay: LTP in Aβ42-treated hippocampal slices (YF2); conditions: 200 nM Aβ42-treated slices; YF2 1 μM for 30 min prior to the θ-burst
Procedure: Next, we checked if YF2 could attenuate synaptic and cognitive dysfunction after Aβ elevation. […] Next, we induced LTP or contextual fear memory as well as reference memory in the presence of oligomeric Aβ42, or vehicle. In the LTP experiments 200 nM Aβ42 or vehicle were perfused through the bath solution for 20 min prior to the application of the θ-burst. In the behavioral experiments 200 nM Aβ42 (in a final volume of 1 μl over 1 min) or vehicle were bilaterally infused 15 min prior to the foot shock or 15 min prior to the 1st trial (for the 1st group of tests in a 2-day radial arm water maze (RAWM) test assessing reference memory^[P34] (herein incorporated by reference in its entirety)) and 15 min prior to the 7th trial (for the 2nd group of tests of the RAWM) into dorsal hippocampus of the animal that had been pre-implanted with a cannula the week before. Aβ reduced LTP and both reference and contextual fear memory (FIG. 66).

YAC128 mice = assay: Accelerating rotarod in YAC128 Huntington's Disease mice; assay type: in vivo; conditions: YF2 5 mg/kg from age 2 months
Procedure: Animals: Mouse models of Huntington's Disease (YAC128) versus wildtype (WT) littermates.
Accelerating Rotarod: This assay is a common assay used to monitor motor coordination in mouse models of Huntington's disease (HD). After a training period to acclimatize the mice to the apparatus, mice are placed on a rod rotating at 5 rpm. Over the test period of 300 sec, the rod increases its rotational speed from 5 rpm to 40 rpm. The time at which the mouse falls off of the rod is recorded. Each mouse is subject to 3 runs per day (shown as a per day average) across 3 days (d1, d2, d3). Typically 8 to 12 mice per group are used in this assay. Both male and female data are shown for age 4 months (FIG. 83A) and 6 months (FIG. 83B).

HDAC1 = HDAC1 (Homo sapiens, UniProt Q13547); assay: HDAC1 fluorogenic activity assay; conditions: for % Activity: Repeat1/Repeat2, listed as OA2
Chain of HDAC1 (Q13547 whole entry): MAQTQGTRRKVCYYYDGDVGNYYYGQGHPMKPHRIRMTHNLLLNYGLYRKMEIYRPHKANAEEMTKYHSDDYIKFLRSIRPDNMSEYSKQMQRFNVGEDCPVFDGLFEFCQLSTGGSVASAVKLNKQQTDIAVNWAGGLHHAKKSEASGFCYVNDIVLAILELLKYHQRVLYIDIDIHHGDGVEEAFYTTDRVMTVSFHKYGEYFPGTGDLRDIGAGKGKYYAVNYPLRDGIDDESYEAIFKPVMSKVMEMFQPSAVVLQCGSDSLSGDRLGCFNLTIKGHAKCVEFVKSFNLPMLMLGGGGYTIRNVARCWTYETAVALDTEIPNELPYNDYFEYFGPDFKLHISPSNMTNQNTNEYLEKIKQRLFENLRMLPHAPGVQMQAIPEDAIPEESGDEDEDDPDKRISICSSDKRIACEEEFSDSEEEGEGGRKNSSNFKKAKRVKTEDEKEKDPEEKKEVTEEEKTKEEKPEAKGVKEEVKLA

Q: With `CC(/C=C/C(=O)NO)=C\[C@@H](C)C(=O)c1ccc(N(C)C)cc1` [TSA, trichostatin A] as the molecule, how does the baseline transmission ([1]; APP/PS1 and WT slices that received no tetanus) read?
A: did not affect

Q: What about the “amplitude of LTP in WT slices” value ([1]; WT slices, TSA perfused 30 min) of the same molecule?
A: did not change; also recorded: no effect

Q: What about the “potentiation (LTP) vs vehicle-treated APP/PS1 slices” value ([1]; slices of 3-4 month-old APP/PS1 mice, TSA perfused 30 min before tetanus) of the same molecule?
A: far greater; also recorded: reverses

Q: With `CCOc1cccc(OCCN(C)C)c1C(=O)Nc1ccc(Cl)c(C(F)(F)F)c1` [YF2] as the molecule, how does the “time of peak in blood post-injection” value [2] read?
A: around 30 minutes

Q: What about the “acetylation of H3K4, H3K9, H3K14, H4K5, H4K8, H4K12, H4K16 and H2B in hippocampus” value ([3]; 20 mg/Kg i.p., sacrificed 30 min later) of the same molecule?
A: increased

Q: And the ACH3 in hippocampus ([3]; 50 mg/kg i.p., 2 and 4 hrs after administration)?
A: increase

Q: What about the “ACH3 levels in hippocampus” value ([3]; 5, 10, 20 mg/Kg i.p. in saline, 0.5, 1 and 2 hrs, except 1 hr-10 mg/kg) of the same molecule?
A: dramatically increased

Q: And the “histone acetylation levels following Aβ elevation” value ([3]; after foot shock, FIG. 80)?
A: restores

Q: And the “histone acetylation levels following Aβ elevation” value ([3]; basal conditions, FIG. 79)?
A: restores

Q: And the “crossing of the blood brain barrier (BBB)” value ([3]; concluded from brain histone acetylation after i.p. administration)?
A: able to cross the BBB; also recorded: crosses the BBB and the cell membrane

Q: What about the “Aβ-induced decrease in H3 acetylation levels in hippocampus” value ([3]; i.p. 5 mg/kg, Aβ 200 nM infused onto dorsal hippocampi, 5 mg/kg) of the same molecule?
A: able to rescue; also recorded: rescued

Q: What about the “histone 3 acetylation levels of the hippocampus” value ([3]; i.p., FIG. 1) of the same molecule?
A: increases

Q: What about the LTP deficit (Aβ42-treated slices) of the same molecule?
A: ameliorated; also recorded: rescues

Q: And the “rotarod performance deficit of YAC128 vs WT mice” value (YAC128 mice; female mice, 6 months of age)?
A: significance is lost

Q: What about the “rotarod performance deficit of YAC128 vs WT mice” value (YAC128 mice; male mice, 4 months of age) of the same molecule?
A: significance is lost

Q: What about the IC50 (HDAC1) of the same molecule?
A: > 200 µM

Q: And the “% Activity” value (HDAC1; OA2 Log[nM] 0.5)?
A: 98.80% and 98.28%

Q: And the “% Activity” value (HDAC1; OA2 Log[nM] 1.0)?
A: 97.64% and 98.21%

Q: And the “% Activity” value (HDAC1; OA2 Log[nM] 1.5)?
A: 96.72% and 97.14%

Q: What about the “% Activity” value (HDAC1; OA2 Log[nM] 2.0) of the same molecule?
A: 96.42% and 96.10%

Q: And the “% Activity” value (HDAC1; OA2 Log[nM] 2.5)?
A: 95.81% and 97.49%

Q: What about the “% Activity” value (HDAC1; OA2 Log[nM] 3.0) of the same molecule?
A: 96.63% and 95.68%

Q: What about the “% Activity” value (HDAC1; OA2 Log[nM] 3.5) of the same molecule?
A: 93.12% and 97.60%

Q: What about the “% Activity” value (HDAC1; OA2 Log[nM] 4.0) of the same molecule?
A: 91.35% and 92.53%

Q: What about the “% Activity” value (HDAC1; OA2 Log[nM] 4.5) of the same molecule?
A: 92.01% and 90.19%

Q: And the “% Activity” value (HDAC1; OA2 Log[nM] 5.3)?
A: 63.73% and 61.76%
